In brackets after ≈: the same amount, converted by molar mass. Where two headings read alike, the source gives them in different places.
Assay: Solubility of tripamide in water, Liquid I or Liquid II of the Japanese Pharmacopeia (37° C., 5 days, absorbancy method)
Type: physicochemical
Conditions: for solubility at 120 h: 37° C., 5 days, as tripamide, Experiment 2
Procedure: The inclusion compound prepared in accordance with the process described in Example 1 was used as a sample. This sample was prepared by the reaction of 1 mole of tripamide and 3 moles of β-cyclodextrin. For purpose of comparison, tripamide per se was used.
The sample was accurately weighed 100 mg as tripamide and mixed with water, Liquid I of the Japanese Pharmacopeia or Liquid II of the Japanese Pharmacopeia. The mixture was stirred at 37° C. in a warm bath for 5 days. Tripamide, dissolved in the solution, was measured by the absorbancy method.
That is, each of the tripamide solutions in water, Liquid I of the Japanese Pharmacopeia and Liquid II of the Japanese Pharmacopeia was filtered using a millipore filter of 1.2 μm and 1 ml each of the solutions after filtration was taken out. In the case of the solution using Liquid I of the Japanese Pharmacopeia, the solution was further diluted with Liquid I of the Japanese Pharmacopeia to make a 100 ml solution and 5 ml taken out of the resulting solution was further diluted to 50 ml with a 0.1N hydrochloric acid-methanol solution followed by measurement at 244 nm. In the case of each of the solutions in water and Liquid II of the Japanese Pharmacopeia, the solution was diluted to 100 ml with Liquid II of the Japanese Pharmacopeia followed by measurement at 233 nm. […]

- solubility at 120 h (Water, read-out: Solubility (mg/ml), Water): 0.0094 mg/mL (≈ 25.4 µM)
- solubility at 120 h (jp liquid i, pH 1.2, Liquid I of the Japanese Pharmacopeia, pH about 1.2, read-out: Solubility (mg/ml), Japanese Pharmacopeia Liquid I): 0.349 mg/mL (≈ 944 µM)
- solubility at 120 h (jp liquid ii, pH 7.5, Liquid II of the Japanese Pharmacopeia, pH about 7.5, read-out: Solubility (mg/ml), Japanese Pharmacopeia Liquid II): 0.0144 mg/mL (≈ 38.9 µM)
- solubility in water, Liquid I and Liquid II (in words) (water, Liquid I and Liquid II of the Japanese Pharmacopoeia, sample for comparison): low
SMILES: NS(=O)(=O)c1cc(C(=O)NN2C[C@@H]3[C@@H]4CC[C@@H](C4)[C@@H]3C2)ccc1Cl [Tripamide, N-(4-A2a-endo-tricyclo[5.2.1.0^2.6. ]decan-4-yl)-4-chloro-3-sulfamoylbenzamide]
- solubility in water (in words) (water, background statement): soluble in water only with extreme difficulty
